Measured values as given in ChEMBL document CHEMBL3739348, “Novel pyrrole derivatives as selective CHK1 inhibitors: design, regioselective synthesis and molecular modeling” (Medchemcomm, 2015).

Columns and labels:
[1] = target: Protein kinase C (PKC) (Homo sapiens) (UniProt O94806+P41743+P17252+P05129+Q05655+P05771+Q05513+Q02156+P24723+Q15139+Q04759); assay: Inhibition of PKC (unknown origin) at 30 uM by microfluidic assay relative to control
[2] = target: T1, Serine/threonine-protein kinase Chk1 (Homo sapiens) (UniProt O14757); assay: Inhibition of CHK1 (unknown origin) at 30 uM by microfluidic assay relative to control
T1 sequence (whole entry): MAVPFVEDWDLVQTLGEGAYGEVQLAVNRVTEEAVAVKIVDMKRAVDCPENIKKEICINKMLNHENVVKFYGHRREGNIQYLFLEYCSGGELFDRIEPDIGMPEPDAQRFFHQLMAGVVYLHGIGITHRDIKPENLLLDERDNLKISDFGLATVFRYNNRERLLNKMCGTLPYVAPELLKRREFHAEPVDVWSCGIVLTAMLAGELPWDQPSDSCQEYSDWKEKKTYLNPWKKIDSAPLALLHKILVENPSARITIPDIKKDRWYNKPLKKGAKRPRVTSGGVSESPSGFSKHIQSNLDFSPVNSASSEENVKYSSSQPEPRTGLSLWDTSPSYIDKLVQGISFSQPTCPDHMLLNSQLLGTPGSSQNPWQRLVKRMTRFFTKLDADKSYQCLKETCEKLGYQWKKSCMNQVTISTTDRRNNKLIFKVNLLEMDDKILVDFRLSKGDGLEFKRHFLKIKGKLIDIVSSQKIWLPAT

[3] = target: Mitogen-activated protein kinase 3 (Homo sapiens) (UniProt P27361); assay: Inhibition of Erk1 (unknown origin) at 30 uM by microfluidic assay relative to control
[4] = target: Mitogen-activated protein kinase 1 (Homo sapiens) (UniProt P28482); assay: Inhibition of Erk2 (unknown origin) at 30 uM by microfluidic assay relative to control
[5] = target: Glycogen synthase kinase-3 (Homo sapiens) (UniProt P49840+P49841); assay: Inhibition of GSK3 (unknown origin) at 30 uM by microfluidic assay relative to control; assay type: protein assay
[6] = target: Mitogen-activated protein kinase 14 (Homo sapiens) (UniProt Q16539); assay: Inhibition of p38a (unknown origin) at 30 uM by microfluidic assay relative to control
[7] = target: Tyrosine-protein kinase ABL1 (Homo sapiens) (UniProt P00519); assay: Inhibition of ABL (unknown origin) at 30 uM by microfluidic assay relative to control
[8] = target: Tyrosine-protein kinase Fyn (Homo sapiens) (UniProt P06241); assay: Inhibition of FYN (unknown origin) at 30 uM by microfluidic assay relative to control
[9] = target: Insulin receptor (Homo sapiens) (UniProt P06213); assay: Inhibition of InsR (unknown origin) at 30 uM by microfluidic assay relative to control
[10] = target: Tyrosine-protein kinase Lyn (Homo sapiens) (UniProt P07948); assay: Inhibition of LYN (unknown origin) at 30 uM by microfluidic assay relative to control
[11] = target: Tyrosine-protein kinase Lck (Homo sapiens) (UniProt P06239); assay: Inhibition of LCK (unknown origin) at 30 uM by microfluidic assay relative to control
[12] = target: Hepatocyte growth factor receptor (Homo sapiens) (UniProt P08581); assay: Inhibition of MET (unknown origin) at 30 uM by microfluidic assay relative to control
[13] = target: Proto-oncogene tyrosine-protein kinase Src (Homo sapiens) (UniProt P12931); assay: Inhibition of SRC (unknown origin) at 30 uM by microfluidic assay relative to control
[14] = target: Epidermal growth factor receptor (Homo sapiens, UniProt P00533); assay: Inhibition of EGFR (unknown origin) by microfluidic assay relative to control
[15] = target: T2, Serine/threonine-protein kinase Chk1 (Homo sapiens, UniProt O14757); assay: Inhibition of CHK1 (unknown origin) by microfluidic assay relative to control
T2 sequence (O14757 whole entry): T1 sequence (whole entry)

Sequence of Mitogen-activated protein kinase 14 (Homo sapiens) (Q16539 whole entry): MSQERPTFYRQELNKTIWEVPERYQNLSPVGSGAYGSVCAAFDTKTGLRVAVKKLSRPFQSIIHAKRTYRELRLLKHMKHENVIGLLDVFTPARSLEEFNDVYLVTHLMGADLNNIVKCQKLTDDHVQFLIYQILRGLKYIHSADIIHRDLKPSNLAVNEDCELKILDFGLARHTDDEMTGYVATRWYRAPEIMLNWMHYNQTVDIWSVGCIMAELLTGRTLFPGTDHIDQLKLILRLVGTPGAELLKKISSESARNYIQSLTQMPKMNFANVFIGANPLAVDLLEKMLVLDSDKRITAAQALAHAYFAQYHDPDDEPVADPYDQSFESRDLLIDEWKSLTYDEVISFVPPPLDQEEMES
Sequence of Mitogen-activated protein kinase 3 (Homo sapiens) (P27361 whole entry): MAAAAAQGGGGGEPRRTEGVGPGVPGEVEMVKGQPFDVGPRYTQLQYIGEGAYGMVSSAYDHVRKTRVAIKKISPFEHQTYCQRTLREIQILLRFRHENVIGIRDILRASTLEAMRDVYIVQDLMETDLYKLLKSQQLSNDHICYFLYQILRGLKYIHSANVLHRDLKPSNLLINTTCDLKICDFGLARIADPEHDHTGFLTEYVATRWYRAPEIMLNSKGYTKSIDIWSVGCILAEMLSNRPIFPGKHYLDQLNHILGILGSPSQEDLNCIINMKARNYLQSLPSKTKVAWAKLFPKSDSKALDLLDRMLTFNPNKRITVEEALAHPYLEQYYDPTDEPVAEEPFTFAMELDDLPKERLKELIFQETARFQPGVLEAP
Sequence of Proto-oncogene tyrosine-protein kinase Src (Homo sapiens) (P12931 2-536 limits assumed): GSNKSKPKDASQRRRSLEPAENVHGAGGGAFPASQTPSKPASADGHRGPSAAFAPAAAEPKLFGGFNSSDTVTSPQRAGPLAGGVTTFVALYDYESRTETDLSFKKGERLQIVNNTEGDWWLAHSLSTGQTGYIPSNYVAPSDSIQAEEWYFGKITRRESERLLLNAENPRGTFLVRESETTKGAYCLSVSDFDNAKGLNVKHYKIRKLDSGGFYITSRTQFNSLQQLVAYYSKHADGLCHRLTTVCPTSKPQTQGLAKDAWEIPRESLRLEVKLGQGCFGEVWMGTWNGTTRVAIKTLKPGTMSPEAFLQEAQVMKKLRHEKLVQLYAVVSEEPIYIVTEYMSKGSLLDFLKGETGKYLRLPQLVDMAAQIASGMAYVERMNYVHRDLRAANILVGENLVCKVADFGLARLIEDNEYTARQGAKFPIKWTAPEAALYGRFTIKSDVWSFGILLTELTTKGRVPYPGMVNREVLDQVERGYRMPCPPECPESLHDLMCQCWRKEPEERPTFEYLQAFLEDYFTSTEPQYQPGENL
Sequence of Tyrosine-protein kinase ABL1 (Homo sapiens) (P00519 whole entry): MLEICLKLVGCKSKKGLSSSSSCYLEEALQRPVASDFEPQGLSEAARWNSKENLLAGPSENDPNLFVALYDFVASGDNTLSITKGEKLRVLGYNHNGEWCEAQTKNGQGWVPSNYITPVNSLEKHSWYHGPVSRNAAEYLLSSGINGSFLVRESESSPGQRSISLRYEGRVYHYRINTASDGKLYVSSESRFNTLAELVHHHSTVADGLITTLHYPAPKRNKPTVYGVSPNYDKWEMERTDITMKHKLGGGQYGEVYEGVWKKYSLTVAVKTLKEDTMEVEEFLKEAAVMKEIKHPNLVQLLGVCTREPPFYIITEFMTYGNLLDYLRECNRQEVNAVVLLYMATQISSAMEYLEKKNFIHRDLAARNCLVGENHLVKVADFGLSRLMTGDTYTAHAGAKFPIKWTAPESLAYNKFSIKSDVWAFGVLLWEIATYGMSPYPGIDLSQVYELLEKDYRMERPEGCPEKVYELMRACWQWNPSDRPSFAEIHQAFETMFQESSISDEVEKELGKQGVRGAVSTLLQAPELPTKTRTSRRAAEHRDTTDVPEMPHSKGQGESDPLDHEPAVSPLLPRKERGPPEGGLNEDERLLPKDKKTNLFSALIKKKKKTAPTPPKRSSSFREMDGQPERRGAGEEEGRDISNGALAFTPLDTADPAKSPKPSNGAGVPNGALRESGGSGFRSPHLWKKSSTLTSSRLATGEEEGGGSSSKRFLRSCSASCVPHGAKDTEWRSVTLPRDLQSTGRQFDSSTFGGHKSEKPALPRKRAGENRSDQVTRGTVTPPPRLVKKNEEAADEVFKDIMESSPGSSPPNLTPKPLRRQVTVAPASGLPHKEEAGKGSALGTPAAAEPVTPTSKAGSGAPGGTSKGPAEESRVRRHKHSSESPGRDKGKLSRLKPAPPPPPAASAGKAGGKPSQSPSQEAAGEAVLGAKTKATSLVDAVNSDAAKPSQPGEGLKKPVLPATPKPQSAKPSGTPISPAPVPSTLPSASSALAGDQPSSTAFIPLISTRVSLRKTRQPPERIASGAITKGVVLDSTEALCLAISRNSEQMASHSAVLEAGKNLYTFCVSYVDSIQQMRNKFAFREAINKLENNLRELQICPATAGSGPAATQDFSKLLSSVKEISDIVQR
Sequence of Glycogen synthase kinase-3 (Homo sapiens) (P49840 whole entry, looked up): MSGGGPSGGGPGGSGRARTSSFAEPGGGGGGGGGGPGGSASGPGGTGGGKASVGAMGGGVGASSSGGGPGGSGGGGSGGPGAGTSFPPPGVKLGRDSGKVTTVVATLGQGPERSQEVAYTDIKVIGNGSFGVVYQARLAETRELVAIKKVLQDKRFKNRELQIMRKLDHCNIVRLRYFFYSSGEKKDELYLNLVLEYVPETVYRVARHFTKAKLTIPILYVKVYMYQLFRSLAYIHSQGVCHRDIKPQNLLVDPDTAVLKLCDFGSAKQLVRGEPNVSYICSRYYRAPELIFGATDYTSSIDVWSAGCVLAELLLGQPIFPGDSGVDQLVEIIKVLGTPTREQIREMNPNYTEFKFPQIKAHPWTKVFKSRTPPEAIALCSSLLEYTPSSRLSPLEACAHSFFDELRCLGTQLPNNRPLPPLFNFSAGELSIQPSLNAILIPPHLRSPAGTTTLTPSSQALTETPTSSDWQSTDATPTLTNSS
Sequence of Glycogen synthase kinase-3 (Homo sapiens) (P49841 whole entry, looked up): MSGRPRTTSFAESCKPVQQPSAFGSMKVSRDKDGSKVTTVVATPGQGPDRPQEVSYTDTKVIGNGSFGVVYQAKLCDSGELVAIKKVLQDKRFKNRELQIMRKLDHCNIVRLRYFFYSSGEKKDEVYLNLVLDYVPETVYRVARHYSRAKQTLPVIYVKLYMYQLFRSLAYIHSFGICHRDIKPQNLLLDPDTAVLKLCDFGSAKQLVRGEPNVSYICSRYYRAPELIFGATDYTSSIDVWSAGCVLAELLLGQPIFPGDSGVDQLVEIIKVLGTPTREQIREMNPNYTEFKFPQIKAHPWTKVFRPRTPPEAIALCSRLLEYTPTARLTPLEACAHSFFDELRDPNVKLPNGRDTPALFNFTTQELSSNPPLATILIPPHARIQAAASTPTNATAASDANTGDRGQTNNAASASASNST
Sequence of Tyrosine-protein kinase Lyn (Homo sapiens) (P07948 2-512 limits assumed): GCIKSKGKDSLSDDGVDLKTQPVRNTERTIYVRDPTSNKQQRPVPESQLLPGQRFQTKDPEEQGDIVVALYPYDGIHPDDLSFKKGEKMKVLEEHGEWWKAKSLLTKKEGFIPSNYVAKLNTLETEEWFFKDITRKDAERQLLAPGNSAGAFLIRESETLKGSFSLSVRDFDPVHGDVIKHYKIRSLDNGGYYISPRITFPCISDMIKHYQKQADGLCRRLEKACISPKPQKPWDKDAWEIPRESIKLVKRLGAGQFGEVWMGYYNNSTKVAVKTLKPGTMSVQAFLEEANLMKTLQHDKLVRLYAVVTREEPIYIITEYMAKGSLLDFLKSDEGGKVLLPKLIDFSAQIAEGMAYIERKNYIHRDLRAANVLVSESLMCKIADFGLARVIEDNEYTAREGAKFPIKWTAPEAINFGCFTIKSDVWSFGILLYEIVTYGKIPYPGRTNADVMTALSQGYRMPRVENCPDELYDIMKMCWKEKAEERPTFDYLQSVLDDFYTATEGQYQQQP
Sequence of Mitogen-activated protein kinase 1 (Homo sapiens) (P28482 whole entry): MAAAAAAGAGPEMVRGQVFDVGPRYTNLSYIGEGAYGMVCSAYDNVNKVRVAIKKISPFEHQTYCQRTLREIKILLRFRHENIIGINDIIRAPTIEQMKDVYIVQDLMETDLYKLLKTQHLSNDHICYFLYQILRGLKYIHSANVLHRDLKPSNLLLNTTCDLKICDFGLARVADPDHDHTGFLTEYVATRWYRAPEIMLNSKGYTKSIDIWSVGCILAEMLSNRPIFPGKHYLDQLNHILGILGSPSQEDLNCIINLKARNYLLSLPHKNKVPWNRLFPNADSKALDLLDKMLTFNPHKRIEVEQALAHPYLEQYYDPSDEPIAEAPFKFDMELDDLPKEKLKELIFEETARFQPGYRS
Sequence of Tyrosine-protein kinase Lck (Homo sapiens) (P06239 2-509 limits assumed): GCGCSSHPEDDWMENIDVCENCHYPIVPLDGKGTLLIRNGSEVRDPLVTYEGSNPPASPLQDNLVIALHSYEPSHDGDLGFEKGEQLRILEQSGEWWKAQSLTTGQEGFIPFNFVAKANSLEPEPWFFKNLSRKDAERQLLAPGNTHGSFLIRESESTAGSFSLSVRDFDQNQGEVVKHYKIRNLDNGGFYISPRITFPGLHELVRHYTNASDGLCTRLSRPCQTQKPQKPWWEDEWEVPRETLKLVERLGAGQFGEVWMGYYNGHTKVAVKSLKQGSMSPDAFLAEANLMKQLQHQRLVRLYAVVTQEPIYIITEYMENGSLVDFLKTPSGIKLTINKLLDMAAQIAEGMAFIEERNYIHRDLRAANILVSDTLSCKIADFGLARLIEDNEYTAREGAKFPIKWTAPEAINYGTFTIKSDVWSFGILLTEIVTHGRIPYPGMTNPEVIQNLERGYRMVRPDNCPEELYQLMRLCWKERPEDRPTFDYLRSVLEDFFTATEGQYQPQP

Row | SMILES | inhibition [1] | inhibition [2] | inhibition [3] | inhibition [4] | inhibition [5] | inhibition [6] | inhibition [7] | inhibition [8] | inhibition [9] | inhibition [10] | inhibition [11] | inhibition [12] | inhibition [13] | IC50 [14] | IC50 [15]
1 | CC(=O)c1nn(-c2ccccc2)cc1C(=O)c1c(C)[nH]c(-c2ccccc2)c1-c1ccccc1 | 33% | 100% | 3% | 21% | 12% | 3% | 2% | 2% | 2% | 3% | 22% | 32% | 21% | 4.67 µM | 0.12 µM
2 | Cc1[nH]c(-c2ccccc2)c(-c2ccccc2)c1C(=O)c1coc2ccc(O)cc12 | 32% | 90% | 4% | 3% | 3% | 24% | 3% | 23% | 2% | 21% | 32% | 32% | 32% | 3.67 µM | 0.45 µM
3 | Cc1[nH]c(-c2ccccc2)c(-c2ccccc2)c1C(=O)c1cn(-c2ccccc2)nc1-c1ccccc1 | 67% | 78% | 7% | 35% | 3% | 12% | 3% | 21% | 4% | 24% | 44% | 45% | 12% | 2.56 µM | 0.91 µM
4 | Cc1[nH]c(-c2ccccc2)c(-c2ccccc2)c1-c1ccc(NC(=O)c2ccccc2)c(=O)o1 | 65% | 80% | 5% | 4% | 2% | 32% | 2% | 21% | 3% | 33% | 34% | 22% | 12% | 2.89 µM | 0.78 µM
5 | Cc1[nH]c(-c2ccccc2)c(-c2ccccc2)c1-c1nnc(C)c2nn(-c3ccccc3)cc12 | 13% | 83% | 6% | 32% | 2% | 4% | 1% | 12% | 1% | 3% | 43% | 5% | 43% | 3.89 µM | 0.7 µM
6 | CCOC(=O)c1nn(-c2ccccc2)cc1C(=O)c1c(C)[nH]c(-c2ccccc2)c1-c1ccccc1 | 12% | 85% | 7% | 32% | 13% | 2% | 2% | 21% | 2% | 5% | 23% | 6% | 23% | 3.22 µM | 0.67 µM
